Columns and labels:
[1] = system: 6-OHDA unilateral lesion model rats; test: Forepaw adjusting steps (FAS) test, 6-OHDA induced akinesia; format: in vivo, rat; conditions: for average percentage of adjusting steps (impaired paw to intact paw): L-DOPA 3 mg/kg with 15 mg/kg benserazide s.c. 60 min pretest
Parkinson's disease = conditions: cited from earlier work
[2] = system: unilaterally 6-OHDA-lesioned rats; test: L-DOPA induced AIMs and drugs screening test in the 6-OHDA rat model; format: in vivo; conditions: for L-DOPA-induced dyskinesia (AIMs): Example XIII; for L-DOPA induced AIMs (Lim+Ax+OI): Example X, FIG. 5
Protocol: 6-OHDA (6-hydroxydopamine) is a neurotoxin that selectively kills dopaminergic and noradrenergic neurons and induces a reduction of dopamine levels in the brain. Administration of L-DOPA to unilaterally 6-OHDA-lesioned rats induces abnormal involuntary movements (ATMs). These are axial, limb and oral movements that occur only on the body side that is […] to the lesion.
DA-denervating lesions are performed by unilateral injection of 6-OHDA in the ascending nigrostriatal pathway. Rats were anesthetized with pentobarbital sodium 40 mg/kg (i.p.) and positioned in a stereotactic frame. 6-OHDA is injected into the right ascending DA bundle at the following coordinates (in mm) relative to bregma and dural surface: (1) toothbar position −2.3, A=−4.4, L=1.2, V=7.8, (7.5 ug 6-OHDA), (2) toothbar position +3.4, A=−4.0, L=0.8, V=8.0 mm (6 ug 6-OHDA). The neurotoxin injections are performed at a rate of 1 ul/min, and the injection cannula is left in place for an additional 2-3 min thereafter. Two weeks after surgery rats with nearly complete (>90%) lesions are selected by means of an amphetamine-induced rotation test. The animals are placed in plastic Perspex bowls (30 cm in diameter) and the rotational behavior (360° turns) is recorded by an automated rotometer for 90 min after the i.p. injection of 2.5 mg/kg d-amphetamine sulphate. […] Animals are then allocated into two well-matched sub-groups (according to the amphetamine rotation) and receive daily treatment as described below.
L-DOPA methyl ester (Sigma-Aldrich, Germany) is given at the dose of 6 mg/kg, combined with 15 mg/kg of benserazide HCl (Sigma-Aldrich, Germany). […] The selected rats are allocated groups of 9-12 animals each, which are balanced with the respect to AIM severity. The animals are then treated with the drug and drug combinations as described below.
AIMs ratings are performed by an investigator who was kept unaware of the pharmacological treatment administered to each rat (experimentally blinded). […] The AIM's are classified into four subtypes:
(A) axial AIMs, i.e., dystonic or choreiform torsion of the trunk and neck towards the side contralateral to the lesion. In the mild cases: lateral flexion of the neck or torsional movements of the upper trunk towards the side contralateral to the lesion. With repeated injection of L-DOPA, this movement may develop into a pronounced and continuous dystonia-like axial torsion. (B) limb AIMs, i.e., jerky and/or dystonic movements of the forelimb contralateral to the lesion. In mild cases: hyperkinetic, jerky stepping movements of the forelimb contralateral to the lesion, or small circular movements of the forelimb to and from the snout. As the severity of dyskinesia increases (which usually occurs with repeated administration of L-DOPA), the abnormal movements increase in amplitude, and assume mixed dystonic and hyperkinetic features. Dystonic movements are caused by sustained co-contraction of agonist/antagonist muscles; they are slow and force a body segment into unnatural positions. Hyperkinetic movements are fast and irregular in speed and direction. […] (C) orolingual AIMs, i.e., twitching of orofacial muscles, and bursts of empty masticatory movements with protrusion of the tongue towards the side contralateral to the lesion. This form of dyskinesia affects facial, tongue, and masticatory muscles. It is recognizable as bursts of empty masticatory movements, accompanied to a variable degree by jaw opening, lateral translocations of the jaw, twitching of facial muscles, and protrusion of the tongue towards the side contralateral to the lesion. […] Each of the four subtypes are scored on a severity scale from 0 to 4, where 0=absent, 1=present during less than half of the observation time, 2=present for more than half of the observation time, 3=present all the time but suppressible by external stimuli, and 4=present all the time and not suppressible by external stimuli.

naïve rats = test: Open field test (Example VI); format: in vivo, rat; conditions: pentobarbital 15 mg/kg i.p. 30 min before test, positive control; FIG. 3
Protocol: The open field test was used to determine the effects of drug on locomotor activity. Rats were put in open-field chambers (dimensions 40 cm×40 cm×40 cm) 30 minutes after dosing. After a 15 minutes habituation, locomotion were recorded and analysed by Enthovision Video Tracking Software (Noldus Information Technology, Netherlands) for 60 minutes. All locomotor activities were done during dark phase and to eliminate olfactory cues, the arena was thoroughly cleaned with 70% v/v ethanol between each test.
Group setting for compound tests: Vehicle: Saline, i.p., 30 min before test, n=10 Positive control: Pentobarbital 15 mg/kg, i.p. 30 min before test, n=10
Zolmitriptan 3 mg/kg, i.p. 5 min before buspirone Buspirone 1 mg/kg, i.p. 30 min before test, n=10
Statistical analysis: The total locomotor activity is expressed as total moved distance (cm) and average velocity (cm/s) during 60 minutes. The data were analysed using One-Way ANOVA and the Tukey post-hoc test. The locomotor activity in six time point is expressed as moved distance (cm) and average velocity (cm/s) every 10 minutes. The data were analysed using One-Way ANOVA and the Tukey post-hoc test in each time point.

Sprague-Dawley (SD) rats = test: Rotarod test (Example V); format: in vivo, rat; conditions: pentobarbital 15 mg/kg i.p. 30 min before test, positive control; FIG. 2
Protocol: In brief, the animals (30 SD male rats (180-220 g, bred in house, originally from SLAC Laboratory Animal Co. Ltd) at 9-week of age) were trained twice a day for a 3-day period. […] Each training trial was ended if the animal fell off or grips the device and spun around for two consecutive revolutions. The time that rat stayed on the Rotarod was recorded. The staying duration recorded at last training trail was used as baseline. Rats were grouped according a randomly distribution of baseline.
For the test session on the fourth day, the rats were evaluated on the Rotarod with the same setting as above at 30 min after dosing. The rats were dosed with drugs as described below. Dosing and Rotarod measurement were conducted by two scientists separately. Pentobarbital (15 mg/kg. i.p.) was used a as a positive control.
Vehicle: Saline, i.p., 30 min before test, n=10 Positive control: Pentobarbital 15 mg/kg, i.p. 30 min before test, n=10
The data were analyzed using One-Way ANOVA and the Tukey post-hoc test.

Huntington's disease = conditions: one patient suffering from Huntington's disease; cited from earlier work
LID = conditions: cited from earlier work

SMILES: N[C@@H](Cc1ccc(O)c(O)c1)C(=O)O [L-DOPA, 3,4-dihydroxyphenylalanine]
- average percentage of adjusting steps (impaired paw to intact paw) ([1]; first study): 77.8%
- 6-OHDA induced akinesia, forelimb use ([1]; first study, acute L-DOPA 3 mg/kg with 15 mg/kg benserazide): alleviated 6-OHDA induced akinesia by increasing the forelimb use
- forelimb use ([1]; second study, L-DOPA 3 mg/kg with 15 mg/kg benserazide HCl): significantly increase the forelimb use
- average percentage of adjusting steps (impaired paw to intact paw) ([1]; second study): 77.7%

SMILES: O=C1CC2(CCCC2)CC(=O)N1CCCCN1CCN(c2ncccn2)CC1 [buspirone, 8-[4-(4-pyrimidin-2-ylpiperazin-1-yl)butyl]-8-azaspiro[4.5]decane-7,9-dione]
- disability ratings (Parkinson's disease; 100 mg/day): significant worsening of disability ratings
- dyskinesia (Parkinson's disease; 100 mg/day): reduced dyskinesia
- effects on Parkinson's disease or dyskinesia (Parkinson's disease; 10-60 mg/day): did not have any effects on Parkinson's disease or dyskinesia
- L-DOPA-induced AIM (Total AIMs) ([2]; Example IV, FIG. 1, buspirone 1 mg/kg i.p. given alone): only partly reduced AIM
- L-DOPA-induced AIM (Total AIMs) ([2]; Example VII, FIG. 4, buspirone 0.5 mg/kg i.p. given alone): only partly reduced AIM
- L-DOPA-induced dyskinesia (AIMs) ([2]; buspirone 0.25 and 0.5 mg/kg s.c. 25 min before test): significantly reduced L-DOPA-induced dyskinesia

SMILES: CCCC(C)C1(CC)C(=O)NC(=O)NC1=O (stereo not shown) [pentobarbital]
- open field locomotor activity (total move distance) (naïve rats): significantly reduced motor performance
- rotarod performance (time on the rod) (Sprague-Dawley (SD) rats): significantly reduced time spend on the rotarod

SMILES: O=C1[C@H]2CCCC[C@H]2C(=O)N1CCCCN1CCN(c2nsc3ccccc23)CC1 [perospirone, (3aR, 7aS)-2-{4-[4-(1,2-benzisothiazol-3-yl)piperazin-1-yl]butyl}hexahydro-1H-isoindole-1,3(2H)-dione]
- involuntary movement (Huntington's disease): could reduce involuntary movement

SMILES: Fc1ccc(-c2cncc(CNC[C@H]3CCc4ccccc4O3)c2)cc1 [sarizotan, 1-[(2R)-3,4-dihydro-2H-chromen-2-yl]-N-([5-(4-fluorophenyl)pyridin-3-yl]methyl)methanamine]
- LID (LID; phase 2A study and open labeled study): reduced LID
- LID, effect compared to placebo (LID; several large phase 2b studies): no significant effects

SMILES: O=C1[C@@H]2[C@@H]3CC[C@@H](C3)[C@@H]2C(=O)N1CCCCN1CCN(c2ncccn2)CC1 [tandospirone, (1R,2R,6S,7S)-4-{4-[4-(pyrimidin-2-yl)piperazin-1-yl]butyl}-4-azatricyclo[5.2.1.02,6]decane-3,5-dione]
- L-DOPA induced AIMs (Lim+Ax+OI) ([2]; tandospirone 1 mg/kg i.p. 30 min before test): partially and briefly reduce AIMs
- L-DOPA induced AIMs (Lim+Ax+OI) ([2]; tandospirone 2 mg/kg i.p. 30 min before test): partially and briefly reduce AIMs
- L-DOPA-induced dyskinesia (AIMs) ([2]; tandospirone 1 and 2 mg/kg i.p. 25 min before test): significantly reduced L-DOPA-induced dyskinesia

SMILES: CN(C)CCc1c[nH]c2ccc(C[C@H]3COC(=O)N3)cc12 [zolmitriptan, (S)-4-({3-[2-(dimethylamino)ethyl]-1H-indol-5-yl}methyl)-1,3-oxazolidin-2-one]
- L-DOPA-induced AIM (Total AIMs) ([2]; Example IV, FIG. 1, zolmitriptan 10 mg/kg i.p. given alone): did not reduce AIM

From patent US20140221385A1, “COMBINATIONS OF SEROTONIN RECEPTOR AGONISTS FOR TREATMENT OF MOVEMENT DISORDERS” (CONCIT PHARMA APS, priority 2011, published 2014)
